Measured values reported in ChEMBL document CHEMBL1129482, “Synthesis and anti-herpes virus activity of 2'-deoxy-4'-thiopyrimidine nucleosides” (J Med Chem, 1996).

Assays:
Human betaherpesvirus 5 = assay: Inhibitory activity against human cytomegalovirus (HCMV) strain AD169 in MRC-5 cells.; assay type: functional, organism-based; details: Human betaherpesvirus 5, MRC5
[1] = Inhibitory activity against herpes simplex virus type 2 (HSV 2) strain 186 in Vero cells.; assay type: functional, cell-based
Vero [2] = assay: Inhibitory dose required to reduce the growth of vero cells by 50% over a 4 day period.; assay type: functional, Chlorocebus sabaeus
Human alphaherpesvirus 3 = assay: Inhibitory activity against varicella zoster virus (VZV) strain G31 in MRC-5 cells.; assay type: functional, organism-based; details: Human alphaherpesvirus 3, MRC5
Human alphaherpesvirus 1 = assay: Inhibitory activity against herpes simplex virus type 1 (HSV-1) strain SC16 in Vero cells.; assay type: functional, organism-based; details: Human alphaherpesvirus 1, Vero
Vero [3] = assay: Inhibitory dose required to reduce the growth of Vero cells by 50% over a 4 day period; assay type: functional, Chlorocebus sabaeus
MRC5 = assay: Inhibitory activity against varicella zoster virus (VZV) strain G31 was determined in MRC-5 cells; Toxicity at 40 uM; assay type: functional, cell-based, Homo sapiens
Vero [4] = assay: Inhibitory activity against herpes simplex virus type 1 (HSV 1) strain SC16 was determined in Vero cells; Range is 0.17-0.5 uM; assay type: functional, cell-based; details: Chlorocebus sabaeus
Vero [5] = assay: Inhibitory activity against herpes simplex virus type 2 (HSV 2) strain 186 was determined in Vero cells; Range is 2-5 uM; assay type: functional, cell-based; details: Chlorocebus sabaeus

Row | SMILES | IC50 (Human betaherpesvirus 5) | IC50 [1] | CCID50 (Vero [2]) | IC50 (Human alphaherpesvirus 3) | IC50 (Human alphaherpesvirus 1) | CCID50 (Vero [3]) | IC50 (MRC5) | IC50 (Vero [4]) | IC50 (Vero [5])
1 | CC(C)(C)c1cn([C@H]2CC(O)C(CO)S2)c(=O)[nH]c1=O (stereo partly specified) | > 100 µM | > 100 µM | 475 µM | – | – | – | – | – | –
2 | O=c1[nH]c(=O)n([C@H]2CC(O)C(CO)S2)cc1/C=C/Cl (stereo partly specified) | > 100 µM | > 100 µM | >500 µM | > 10 µM | 0.5 µM | – | – | – | –
3 | C=C(C)c1cn([C@H]2CC(O)C(CO)S2)c(=O)[nH]c1=O (stereo partly specified) | > 100 µM | > 100 µM | – | < 40 µM | 3.4 µM | >500 µM | – | – | –
4 | O=c1[nH]c(=O)n([C@H]2CC(O)C(CO)S2)cc1CCF (stereo partly specified) | > 100 µM | > 100 µM | >500 µM | 0.12 µM | 0.7 µM | – | – | – | –
5 | O=c1[nH]c(=O)n([C@H]2CC(O)C(CO)S2)cc1[N+](=O)[O-] (stereo partly specified) | – | 27 µM | 476 µM | 13 µM | 18 µM | – | – | – | –
6 | O=C1NC(=O)N(C2CC(O)C(CO)S2)C2CCCC12 (stereo unspecified) | > 100 µM | > 100 µM | >500 µM | > 40 µM | – | – | – | – | –
7 | O=c1[nH]c(=O)n([C@H]2CC(O)C(CO)S2)cc1C12CC3CC(CC(C3)C1)C2 (stereo partly specified) | > 100 µM | > 100 µM | >125 µM | – | > 100 µM | – | Toxic | – | –
8 | O=c1[nH]c(=O)n([C@H]2CC(O)C(CO)S2)cc1CC(F)(F)F (stereo partly specified) | > 100 µM | > 100 µM | >500 µM | > 40 µM | – | – | – | – | –
9 | COc1cn(C2CC(O)C(CO)S2)c(=O)[nH]c1=O (stereo unspecified) | > 100 µM | > 100 µM | – | > 100 µM | > 100 µM | – | – | – | –
10 | O=c1[nH]c(=O)n([C@@H]2CC(O)C(CO)S2)cc1[N+](=O)[O-] (stereo partly specified) | – | > 100 µM | – | > 100 µM | > 100 µM | – | – | – | –
11 | COCCc1cn([C@H]2CC(O)C(CO)S2)c(=O)[nH]c1=O (stereo partly specified) | > 100 µM | > 100 µM | – | > 10 µM | – | – | – | – | –
12 | C#CCc1cn([C@H]2CC(O)C(CO)S2)c(=O)[nH]c1=O (stereo partly specified) | 100 µM | > 100 µM | 492 µM | 1.4 µM | > 100 µM | – | – | – | –
13 | N#Cc1cn([C@H]2CC(O)C(CO)S2)c(=O)[nH]c1=O (stereo partly specified) | > 100 µM | > 100 µM | >500 µM | > 100 µM | > 100 µM | – | – | – | –
14 | C#Cc1cn([C@H]2CC(O)C(CO)S2)c(=O)[nH]c1=O (stereo partly specified) | 9.3 µM | > 10 µM | 33 µM | 5.5 µM | 6.6 µM | – | – | – | –
15 | CC(O)c1cn(C2CC(O)C(CO)S2)c(=O)[nH]c1=O (stereo unspecified) | > 100 µM | > 100 µM | >500 µM | 12 µM | 40 µM | – | – | – | –
16 | C/C=C/c1cn([C@H]2CC(O)C(CO)S2)c(=O)[nH]c1=O (stereo partly specified) | > 100 µM | > 20 µM | >100 µM | 0.46 µM | > 2 µM | – | – | – | –
17 | O=c1[nH]c(=O)n([C@H]2CC(O)C(CO)S2)cc1C(F)(F)F (stereo partly specified) | > 10 µM | 15 µM | 139 µM | – | < 1.6 µM | – | – | – | –
18 | O=c1[nH]c(=O)n([C@H]2CC(O)C(CO)S2)cc1I (stereo partly specified) | 4 µM | 10 µM | >100 µM | 3.5 µM | 0.8 µM | – | – | – | –
19 | CCC(C)c1cn(C2CC(O)C(CO)S2)c(=O)[nH]c1=O (stereo unspecified) | > 100 µM | > 100 µM | >500 µM | – | – | – | – | – | –
20 | COC(C)c1cn(C2CC(O)C(CO)S2)c(=O)[nH]c1=O (stereo unspecified) | > 100 µM | > 100 µM | >500 µM | > 40 µM | > 100 µM | – | – | – | –

Row | SMILES | IC50 (Human betaherpesvirus 5) | IC50 [1] | CCID50 (Vero [2]) | IC50 (Human alphaherpesvirus 3) | IC50 (Human alphaherpesvirus 1) | CCID50 (Vero [3]) | IC50 (MRC5) | IC50 (Vero [4]) | IC50 (Vero [5])
21 | CSCc1cn(C2CC(O)C(CO)S2)c(=O)[nH]c1=O (stereo unspecified) | > 100 µM | > 100 µM | >500 µM | – | – | – | – | – | –
22 | O=c1[nH]c(=O)n([C@H]2CC(O)C(CO)S2)cc1C=C(F)F (stereo partly specified) | > 100 µM | > 100 µM | >500 µM | > 10 µM | – | – | – | – | –
23 | O=c1[nH]c(=O)n(C2CC(O)C(CO)S2)cc1CCCl (stereo unspecified) | – | > 100 µM | >200 µM | 0.3 µM | 0.15 µM | – | – | – | –
24 | CCCc1cn([C@H]2CC(O)C(CO)S2)c(=O)[nH]c1=O (stereo partly specified) | > 100 µM | > 10 µM | >100 µM | 3 µM | 6.8 µM | – | – | – | –
25 | O=c1[nH]c(=O)n([C@H]2CC(O)C(CO)S2)cc1Br (stereo partly specified) | 0.44 µM | > 100 µM | >500 µM | > 40 µM | 5.3 µM | – | – | – | –
26 | CCc1cn([C@@H]2CC(O)C(CO)S2)c(=O)[nH]c1=O (stereo partly specified) | > 100 µM | > 100 µM | >100 µM | > 100 µM | – | – | – | – | –
27 | COCc1cn(C2CC(O)C(CO)S2)c(=O)[nH]c1=O (stereo unspecified) | > 100 µM | > 10 µM | – | > 10 µM | > 10 µM | – | – | – | –
28 | O=c1[nH]c(=O)n([C@H]2CC(O)C(CO)S2)cc1C(F)=C(Cl)Cl (stereo partly specified) | > 100 µM | – | >500 µM | > 100 µM | > 50 µM | – | – | – | –
29 | O=c1[nH]c(=O)n(C2CC(O)C(CO)S2)cc1F (stereo unspecified) | > 100 µM | > 10 µM | 92 µM | > 100 µM | > 10 µM | – | – | – | –
30 | CC(=O)c1cn(C2CC(O)C(CO)S2)c(=O)[nH]c1=O (stereo unspecified) | > 100 µM | > 10 µM | 351 µM | > 10 µM | > 10 µM | – | – | – | –
31 | C=Cc1cn([C@H]2CC(O)C(CO)S2)c(=O)[nH]c1=O (stereo partly specified) | 93 µM | > 100 µM | >500 µM | 1.1 µM | 1.4 µM | – | – | – | –
32 | O=c1[nH]c(=O)n([C@H]2CC(O)C(CO)S2)cc1Cl (stereo partly specified) | 0.2 µM | > 100 µM | 59 µM | > 40 µM | > 100 µM | – | – | – | –
33 | CCc1cn([C@H]2CC(O)C(CO)S2)c(=O)[nH]c1=O (stereo partly specified) | 138 µM | – | >100 µM | 0.99 µM | – | – | – | 0.17 µM | 2 µM
34 | O=c1[nH]c(=O)n([C@@H]2CC(O)C(CO)S2)cc1C(F)(F)F (stereo partly specified) | > 100 µM | > 100 µM | >500 µM | – | – | – | – | – | –
35 | O=c1[nH]c(=O)n([C@H]2CC(O)C(CO)S2)cc1C1CC1 (stereo partly specified) | > 100 µM | > 100 µM | >500 µM | 0.5 µM | 1.6 µM | – | – | – | –
36 | CC(C)c1cn([C@H]2CC(O)C(CO)S2)c(=O)[nH]c1=O (stereo partly specified) | > 100 µM | > 100 µM | >500 µM | 4.1 µM | 2.2 µM | – | – | – | –
37 | Nc1nc2c(ncn2COCCO)c(=O)[nH]1 [ACYCLOVIR] | > 85 µM | 1.7 µM | >500 µM | – | 1.8 µM | – | – | – | –
38 | O=c1[nH]c(=O)n([C@H]2C[C@H](O)[C@@H](CO)O2)cc1/C=C/Br [BRIVUDINE] | > 100 µM | 10 µM | >250 µM | < 1 µM | 1.4 µM | – | – | – | –
39 | Nc1nc(O)c2ncn(CCC(CO)CO)c2n1 [PENCICLOVIR] | > 100 µM | 12.8 µM | – | 78.7 µM | 3.9 µM | – | – | – | –
